Consider two compounds from US8951993B2, “Phosphorus containing compounds as protein kinase inhibitors” (Jiangsu Hansoh Pharmaceutical Co., Ltd., priority 2011, dated 2015).

Read-outs that look alike come from different tables or passages of the source. Where only a bound is given, the exact number is not on record here.

The target in data set [1] is T1, ALK wild type (Homo sapiens, UniProt Q9UM73).
T1 construct: purchased Carna Biosciences (Chuo-ku, Kobe, Japan)
The data set is described as follows: Off-chip mobility shift assay (Carna Biosciences), ALK wild type. Format: biochemical. On the procedure:
(§1) The activities of ALK wild type, its mutant F1174L, R1275Q, L1196M and EML4-ALK, NPM1-ALK were also determined using off-chip mobility shift assay at Carna Biosciences (Chuo-ku, Kobe, Japan). In brief, 5 μL of ×4 compound solution, 5 μL of ×4 substrate/ATP/metal solution and 10 μL of ×2 kinase solution were prepared with assay buffer (20 mM HEPES, 0.01% Triton X-100, 2 mM DTT, pH 7.5) and mixed and incubated in a well of polypropylene 384 well microplate for 1 or 5 hours (depending on the enzyme). The ATP concentration used in the reaction was 50 μM for ALK wild type, F1174L mutant, EML4-ALK and NPM1-ALK, and 100 μM for R1275Q and 72 μM for L1196M. An aliquot of 60 μL of termination buffer (QuickScout Screening Assist MSA, Carna Biosciences) was added to each well to terminate the reactions. The reaction mixture was applied to LabChip3000 system (Caliper Life Science), and the product and substrate peptide peaks were separated and quantitated. The kinase reaction was evaluated by the product ratio calculated from peak heights of product (P) and substrate (S) peptides (P/(P+S)). IC50 value was calculated from concentration vs. % Inhibition curves by fitting to a four parameter logistic curve.

Data set [2] has as its target T2, ALK mutant F1174L (Homo sapiens, UniProt Q9UM73, F1174L).
T2 construct: purchased Carna Biosciences (Chuo-ku, Kobe, Japan)
The data set is described as follows: Off-chip mobility shift assay (Carna Biosciences), ALK F1174L. Format: biochemical. The method, then:
as §1

Data set [3] concerns the target T3, ALK mutant R1275Q (Homo sapiens, UniProt Q9UM73, R1275Q).
T3 construct: purchased Carna Biosciences (Chuo-ku, Kobe, Japan)
Description: Off-chip mobility shift assay (Carna Biosciences), ALK R1275Q. Format: biochemical. On the procedure:
as §1

The target in data set [4] is T4, ALK mutant L1196M (Homo sapiens, UniProt Q9UM73, L1196M).
T4 construct: purchased Carna Biosciences (Chuo-ku, Kobe, Japan)
Description: Off-chip mobility shift assay (Carna Biosciences), ALK L1196M. Format: biochemical. On the procedure:
as §1

The target of data set [5] is T5, EML4-ALK (Homo sapiens, UniProt Q9UM73).
T5 construct: purchased Carna Biosciences (Chuo-ku, Kobe, Japan); the other entry of the earlier key: EML4 (Q9HC35, Echinoderm microtubule-associated protein-like 4)
The data set is described as follows: Off-chip mobility shift assay (Carna Biosciences), EML4-ALK. Format: biochemical. The method, then: as §1

In data set [6] the target is T6, NPM1-ALK (Homo sapiens, UniProt Q9UM73).
T6 construct: purchased Carna Biosciences (Chuo-ku, Kobe, Japan); the other entry of the earlier key: NPM1 (P06748, Nucleophosmin)
The data set is described as follows: Off-chip mobility shift assay (Carna Biosciences), NPM1-ALK. It counts as biochemical. The method, then:
as §1

Data set [7] deals with Karpas299. Description: Cell proliferation assay (MTS / BrdU), Karpas299. It counts as cell-based. Particulars: Homo sapiens, KARPAS-299; 72 hours, 2% FBS. On the procedure:
(§2) Karpas299 and SU-DHL-1 cells were purchased from Deutsche Sammlung von Mikroorganismen and Zellkulturen (Germany). H2228 was purchased from American Type Culture Collection (USA). All cells were cultured in the recommended medium and serum concentration. Cells were maintained at 37° C. in a humidified atmosphere with 5% CO2. For ALK kinase phosphorylation, cells were seeded in 96-well plates overnight in medium supplemented with 10% fetal bovine serum […]. After 24 hours, the medium was removed and cells were cultured in serum-free medium at 37° C. in the presence of various concentrations of the test articles for 1 hour. After incubation with the tested articles, cells were washed once with HBSS supplemented with 1 mM Na3VO4 and protein lysates were generated. Subsequently, phosphorylation of ALK was assessed by a sandwich ELISA method using an immobilized anti-total-ALK antibody and an anti-phospho-ALK antibody (pY1604) as a detection antibody. IC50 value was calculated using median-effect method. (Chou 2006).
(§3) For cell proliferation assay, cells were seeded in 96-well pates at low density at 37° C. in medium supplemented with 10% FBS and after 24 hours were switched to low serum medium (2% FBS). Cells were further incubated in the presence of the test articles at various concentrations at 37° C. for 72 hours. Two assays were employed to determine the relative cell numbers. One is a 3-(4,5-dimethylthiazol-2-yl)-5-(3-carboxymethoxyphenyl)-2-(4-sulfophenyl)-2H-tetrazolium (MTS) assay using a CellTiter 96® Aqueous Non-Radioactive Cell Proliferation kit (Promega), and the other is a BrdU incorporation assay using a DELFIA® Cell Proliferation Kit (Perkin Elmer). IC50 value was calculated using median-effect method (Chou 2006).

For data set [8], the system named is SU-DHL-1. The data set is described as follows: Cell proliferation assay (MTS / BrdU), SU-DHL-1. Particulars: Homo sapiens, 72 hours, 2% FBS. Format: cell-based. On the procedure: as §2, §3
In data set [9] the test system is H2228. The data set is described as follows: Cell proliferation assay (MTS / BrdU), H2228. Format: cell-based. Conditions: Homo sapiens, NCI-H2228; 72 hours, 2% FBS. On the procedure: as §2, §3
In data set [10] the test system is lung cancer cell line H2228. Description: H2228 xenograft studies in athymic mice. Format: in vivo, athymic mice (nude/nud mouse). The source says:
Xenograft model was developed in athymic mice (nude/nud mouse) with lung cancer cell line H2228 purchased from the American Type Culture Collection Company (Manassas, Va., USA). In brief, H2228 cells (1×10^7) were implanted s.c. into the hind flank region of each mouse and allowed to grow to the designated size (c.a. 150-200 mm^3) before administration of the tested articles. The tested articles were given orally at various dose levels twice daily for 10-14 days. Tumor volume and body weight were measured during the experiments. Tumor regression values were determined using the standard approach.

In data set [11] the target is T7, ALK (Homo sapiens, UniProt Q9UM73). Description: Inhibition of ALK phosphorylation (sandwich ELISA, pY1604), cell line not given. Conditions: 1 hour, serum-free. Format: cell-based. Also noted: fused on or other part: Q9HC35 (Echinoderm microtubule-associated protein-like 4). The method, then:
as §2
Target sequence in this assay (Q9UM73 1058-1620 limits assumed): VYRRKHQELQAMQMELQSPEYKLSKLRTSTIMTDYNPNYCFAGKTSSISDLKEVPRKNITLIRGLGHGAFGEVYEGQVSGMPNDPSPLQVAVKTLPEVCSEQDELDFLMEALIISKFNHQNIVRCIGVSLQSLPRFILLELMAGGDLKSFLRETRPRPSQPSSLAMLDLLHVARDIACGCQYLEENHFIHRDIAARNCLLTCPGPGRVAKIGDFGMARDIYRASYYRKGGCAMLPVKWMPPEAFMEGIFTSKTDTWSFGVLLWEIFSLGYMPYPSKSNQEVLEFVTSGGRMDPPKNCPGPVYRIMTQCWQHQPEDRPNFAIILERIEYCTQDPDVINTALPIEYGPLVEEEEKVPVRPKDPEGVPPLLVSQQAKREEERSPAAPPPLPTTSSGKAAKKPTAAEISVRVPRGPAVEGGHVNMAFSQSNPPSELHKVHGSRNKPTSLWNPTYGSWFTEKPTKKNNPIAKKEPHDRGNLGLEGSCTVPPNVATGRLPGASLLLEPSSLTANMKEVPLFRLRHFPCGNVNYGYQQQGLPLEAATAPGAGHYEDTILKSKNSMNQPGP

Data set [12] deals with T7, ALK. The data set is described as follows: Inhibition of ALK phosphorylation (sandwich ELISA, pY1604) in Karpas299 cells. Format: cell-based. Also noted: NPM1 portion (fusion partner, nucleophosmin, P06748); host or cells: Karpas299; SU-DHL-1; the other entry of the earlier key: NPM1 (P06748, Nucleophosmin). Conditions: 1 hour, serum-free. The method, then: as §2
Target sequence in this assay (Q9UM73 with tags, fused parts or gaps): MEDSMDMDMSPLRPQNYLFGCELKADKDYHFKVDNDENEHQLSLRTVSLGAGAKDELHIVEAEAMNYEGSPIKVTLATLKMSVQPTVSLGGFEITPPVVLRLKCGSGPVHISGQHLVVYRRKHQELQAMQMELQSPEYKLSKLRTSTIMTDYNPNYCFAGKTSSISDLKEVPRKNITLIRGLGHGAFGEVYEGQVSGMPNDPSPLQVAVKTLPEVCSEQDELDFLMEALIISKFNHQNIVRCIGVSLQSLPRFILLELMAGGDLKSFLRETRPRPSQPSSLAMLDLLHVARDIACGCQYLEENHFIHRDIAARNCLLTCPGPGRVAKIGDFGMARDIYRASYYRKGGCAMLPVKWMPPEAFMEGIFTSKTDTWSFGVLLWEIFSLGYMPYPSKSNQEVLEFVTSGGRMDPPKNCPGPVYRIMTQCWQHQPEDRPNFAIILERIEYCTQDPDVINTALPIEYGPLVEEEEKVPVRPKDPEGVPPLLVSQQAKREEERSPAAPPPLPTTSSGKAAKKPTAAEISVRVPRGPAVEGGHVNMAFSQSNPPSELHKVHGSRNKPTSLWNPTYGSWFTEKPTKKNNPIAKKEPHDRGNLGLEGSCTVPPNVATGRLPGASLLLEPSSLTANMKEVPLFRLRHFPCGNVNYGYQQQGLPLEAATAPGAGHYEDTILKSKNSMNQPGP
The target in data set [13] is T7, ALK. The data set is described as follows: Inhibition of ALK phosphorylation (sandwich ELISA, pY1604) in SU-DHL-1 cells. It counts as cell-based. Also noted: NPM1 portion (fusion partner, nucleophosmin, P06748); host or cells: Karpas299; SU-DHL-1; the other entry of the earlier key: NPM1 (P06748, Nucleophosmin). Particulars: 1 hour, serum-free. On the procedure:
as §2

The target of data set [14] is cytochrome P450 3A4 (Homo sapiens, UniProt P08684). Particulars: reported; causing clinical drug-drug interactions; cited from earlier work.
Sequence of cytochrome P450 3A4 (P08684 whole entry): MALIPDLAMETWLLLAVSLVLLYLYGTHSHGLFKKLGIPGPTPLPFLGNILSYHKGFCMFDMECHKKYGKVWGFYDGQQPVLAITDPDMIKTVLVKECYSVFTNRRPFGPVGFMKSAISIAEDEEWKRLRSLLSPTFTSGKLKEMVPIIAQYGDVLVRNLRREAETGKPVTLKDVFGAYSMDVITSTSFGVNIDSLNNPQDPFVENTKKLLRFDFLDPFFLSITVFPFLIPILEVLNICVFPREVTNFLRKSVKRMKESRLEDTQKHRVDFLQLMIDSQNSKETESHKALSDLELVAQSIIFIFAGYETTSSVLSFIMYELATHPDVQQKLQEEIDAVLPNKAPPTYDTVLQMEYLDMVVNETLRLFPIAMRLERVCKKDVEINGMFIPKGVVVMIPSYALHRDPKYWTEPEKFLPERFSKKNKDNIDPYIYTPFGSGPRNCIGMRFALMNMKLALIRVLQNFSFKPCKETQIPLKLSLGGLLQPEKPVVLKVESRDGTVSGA

T5 sequence (Q9UM73 with tags, fused parts or gaps): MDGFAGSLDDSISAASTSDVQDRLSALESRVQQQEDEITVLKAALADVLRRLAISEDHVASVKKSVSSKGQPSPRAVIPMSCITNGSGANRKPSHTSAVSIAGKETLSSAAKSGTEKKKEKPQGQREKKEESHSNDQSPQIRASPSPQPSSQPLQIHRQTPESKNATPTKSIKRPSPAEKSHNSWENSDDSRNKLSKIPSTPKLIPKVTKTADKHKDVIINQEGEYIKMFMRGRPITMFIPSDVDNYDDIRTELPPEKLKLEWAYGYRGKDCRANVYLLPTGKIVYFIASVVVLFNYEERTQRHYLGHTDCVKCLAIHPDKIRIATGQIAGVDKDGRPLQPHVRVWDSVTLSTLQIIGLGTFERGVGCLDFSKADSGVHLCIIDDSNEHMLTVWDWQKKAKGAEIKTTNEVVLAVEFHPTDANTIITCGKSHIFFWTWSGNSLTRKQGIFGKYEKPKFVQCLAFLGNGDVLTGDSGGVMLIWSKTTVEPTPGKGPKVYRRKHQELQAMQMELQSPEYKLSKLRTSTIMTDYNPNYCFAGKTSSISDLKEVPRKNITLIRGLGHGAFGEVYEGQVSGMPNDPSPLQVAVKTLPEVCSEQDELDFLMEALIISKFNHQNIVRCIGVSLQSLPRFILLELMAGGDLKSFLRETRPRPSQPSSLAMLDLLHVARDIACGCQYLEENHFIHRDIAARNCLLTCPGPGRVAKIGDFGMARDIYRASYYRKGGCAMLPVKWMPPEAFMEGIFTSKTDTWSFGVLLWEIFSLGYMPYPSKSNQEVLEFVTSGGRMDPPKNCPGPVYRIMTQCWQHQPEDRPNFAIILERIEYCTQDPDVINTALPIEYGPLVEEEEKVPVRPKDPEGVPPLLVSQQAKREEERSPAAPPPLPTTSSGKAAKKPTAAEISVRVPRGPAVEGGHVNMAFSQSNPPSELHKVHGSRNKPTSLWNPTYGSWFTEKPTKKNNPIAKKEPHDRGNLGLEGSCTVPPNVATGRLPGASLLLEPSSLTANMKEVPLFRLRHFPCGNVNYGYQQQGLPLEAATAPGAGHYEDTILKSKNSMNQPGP
T2 sequence (Q9UM73 19-1620 F1174L): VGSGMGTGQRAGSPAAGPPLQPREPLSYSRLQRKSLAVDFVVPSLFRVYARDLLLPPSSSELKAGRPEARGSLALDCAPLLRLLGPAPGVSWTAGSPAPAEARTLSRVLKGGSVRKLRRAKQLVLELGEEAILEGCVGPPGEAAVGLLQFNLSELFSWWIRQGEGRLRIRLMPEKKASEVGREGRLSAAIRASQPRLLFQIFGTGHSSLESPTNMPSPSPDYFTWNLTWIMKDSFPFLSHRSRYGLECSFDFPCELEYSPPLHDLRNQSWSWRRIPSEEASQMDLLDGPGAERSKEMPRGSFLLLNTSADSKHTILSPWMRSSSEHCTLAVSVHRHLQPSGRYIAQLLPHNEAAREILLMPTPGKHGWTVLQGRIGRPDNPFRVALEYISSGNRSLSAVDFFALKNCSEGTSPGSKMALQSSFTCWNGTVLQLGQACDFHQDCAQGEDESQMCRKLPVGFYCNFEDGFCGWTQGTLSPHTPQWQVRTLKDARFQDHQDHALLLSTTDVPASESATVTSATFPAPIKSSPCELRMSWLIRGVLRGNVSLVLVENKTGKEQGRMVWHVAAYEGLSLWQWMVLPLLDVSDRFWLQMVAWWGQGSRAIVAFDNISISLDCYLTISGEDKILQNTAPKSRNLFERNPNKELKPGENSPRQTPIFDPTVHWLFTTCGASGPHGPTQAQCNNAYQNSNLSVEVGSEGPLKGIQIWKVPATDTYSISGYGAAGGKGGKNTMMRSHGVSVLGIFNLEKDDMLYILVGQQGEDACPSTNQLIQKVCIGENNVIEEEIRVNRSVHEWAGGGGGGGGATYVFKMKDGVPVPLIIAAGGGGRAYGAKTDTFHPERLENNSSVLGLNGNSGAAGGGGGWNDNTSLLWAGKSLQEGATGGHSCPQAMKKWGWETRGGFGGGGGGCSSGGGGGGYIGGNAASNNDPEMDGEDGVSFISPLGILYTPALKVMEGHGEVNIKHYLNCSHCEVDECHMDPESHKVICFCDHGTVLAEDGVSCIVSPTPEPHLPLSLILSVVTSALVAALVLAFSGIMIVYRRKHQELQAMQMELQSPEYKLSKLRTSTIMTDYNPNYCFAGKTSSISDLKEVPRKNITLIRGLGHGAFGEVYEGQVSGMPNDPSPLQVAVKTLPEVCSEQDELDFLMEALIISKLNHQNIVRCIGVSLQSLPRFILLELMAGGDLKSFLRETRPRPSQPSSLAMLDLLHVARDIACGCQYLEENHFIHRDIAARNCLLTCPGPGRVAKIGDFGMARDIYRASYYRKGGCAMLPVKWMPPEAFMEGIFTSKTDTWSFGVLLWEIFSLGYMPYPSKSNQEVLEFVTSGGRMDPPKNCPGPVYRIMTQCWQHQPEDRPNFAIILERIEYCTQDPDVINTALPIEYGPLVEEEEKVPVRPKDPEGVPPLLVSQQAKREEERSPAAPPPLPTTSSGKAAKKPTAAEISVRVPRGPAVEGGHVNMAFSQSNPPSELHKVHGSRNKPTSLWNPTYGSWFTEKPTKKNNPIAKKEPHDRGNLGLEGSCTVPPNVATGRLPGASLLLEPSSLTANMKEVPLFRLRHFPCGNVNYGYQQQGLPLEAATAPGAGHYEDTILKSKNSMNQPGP
T3 sequence (Q9UM73 19-1620 R1275Q): as the sequence (Q9UM73 19-1620 F1174L) above, with L1156F, R1257Q counted along it
T1 sequence (Q9UM73 19-1620): as the sequence (Q9UM73 19-1620 F1174L) above, with L1156F counted along it
T4 sequence (Q9UM73 19-1620 L1196M): as the sequence (Q9UM73 19-1620 F1174L) above, with L1156F, L1178M counted along it

As for `C[C@@H](Oc1cc(-c2ccc(P(C)(C)=O)cc2F)cnc1N)c1c(Cl)ccc(F)c1Cl` [Example 25, 3-[(1R)-1-(2,6-dichloro-3-fluoro-phenyl)ethoxy]-5-(4-dimethylphosphoryl-2-fluoro-phenyl)pyridin-2-amine], the IC50 was under 0.1 µM in data set [1] (footnote #: ALK wild type, read-out: IC50 ALK Kinase (# ALK wild type)); under 0.05 µM in data set [1] (mobility shift, ATP 50 μM, read-out: IC50 ALK wild type); under 0.1 µM in data set [2] (footnote #: F1174L, read-out: IC50 ALK Kinase (# mutant F1174L)); under 0.05 µM in [2] (mobility shift, ATP 50 μM, read-out: IC50 ALK F1174L); under 0.1 µM in data set [3] (footnote #: R1275Q, read-out: IC50 ALK Kinase (# mutant R1275Q)); under 0.05 µM in data set [3] (mobility shift, ATP 100 μM, read-out: IC50 ALK R1275Q). The IC50 in data set [4] (footnote #: L1196M, read-out: IC50 ALK Kinase (# mutant L1196M)) was under 0.1 µM; in [4] (mobility shift, ATP 72 μM, read-out: IC50 ALK L1196M) it was under 0.05 µM; in [5] (footnote #: EML4-ALK, read-out: IC50 ALK Kinase (# EML4-ALK)), under 0.1 µM; in data set [5] (mobility shift, ATP 50 μM, read-out: IC50 EML4-ALK), under 0.05 µM; in data set [6] (footnote #: NPM1-ALK, read-out: IC50 ALK Kinase (# NPM1-ALK)), under 0.1 µM; in [6] (mobility shift, ATP 50 μM, read-out: IC50 NPM1-ALK), under 0.05 µM. The IC50 is under 0.1 µM in data set [7]; under 0.1 µM in [8]; under 0.1 µM in data set [9]; under 0.05 µM in [11]; under 0.1 µM in data set [12]; under 0.05 µM in data set [13]. In addition, the “inhibition of tumor growth compared to the vehicle control” value is 46% in data set [10] (6 mg/kg oral BID), 73% in data set [10] (20 mg/kg oral BID) and 93% in data set [10] (60 mg/kg oral BID). For the same compound, in data set [10] (14 days oral dosing at 60 mg/kg (BID)), the “reduced the tumor size” value is “approximately 80%”.
Regarding `C[C@@H](Oc1cc(-c2cnn(C3CCNCC3)c2)cnc1N)c1c(Cl)ccc(F)c1Cl` [crizotinib], the “cytochrome P450 3A4 inhibition” value in data set [14] was “time-dependent cytochrome P450 3A4 inhibitor”.
